# Key:
# [1] = target: FKBP (Homo sapiens, UniProt P62942, F37V); details: F36V FKBP derivative vs wild-type FKBP; cited from earlier work
# [2] = tested on: ARPE-19 cells; test: Shield-1 concentration dependent progeny virus production (TCID50 assay); format: cell-based, human; details: FKBP derivative fused to UL51 or UL52
# Description: FKBP fusion proteins used in this study comprise an essential protein (IE1/2, UL51, UL52, UL79, UL84, UL87, IE1/2-UL51) fused to an FKBP derivative (ddIE1/2, ddUL51, ddUL52, ddUL79, ddUL84, ddUL87, and ddIE1/2-UL51). ARPE-19 cells were infected with the various rdCMV viruses comprising the noted fusion proteins, at a multiplicity of 0.01 PFU/cell for 1 hour, washed twice with fresh medium, and incubated in the growth medium containing 0, 0.05, 0.1 0.5 or 2 μM of Shield-1. Seven days post infection, the cell free virus was collected, and virus titers were determined by TCID50 assay on ARPE-19 cells in the presence of 2 μM of Shield 1.
# Varying concentrations of Shld-1 were used in additional experiments to further assess viral replication in the presence or absence of Shld-1. ARPE-19 cells were infected by the gH expressing CMV that also contained a FKBP derivative fused to an essential protein at MOI of […]. After infection for 1 hour, the cells were washed twice with fresh medium to remove Shld-1. […] Virus titers were determined by a 50% Tissue Culture Infective Dose (TCID50) assay. Briefly, this dilution assay quantifies the amount of virus required to kill 50% of infected hosts. […] After incubation, the percentage of cell death (i.e. infected cells) was manually observed and recorded for each virus dilution. […]
# FKBP, sequence (P62942 2-108 F37V limits assumed): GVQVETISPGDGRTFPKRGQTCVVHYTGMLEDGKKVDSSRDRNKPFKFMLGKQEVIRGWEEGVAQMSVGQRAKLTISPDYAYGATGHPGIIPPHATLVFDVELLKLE
structure (smiles),measurement,setting,value
CC[C@H](C(=O)N1CCCC[C@H]1C(=O)O[C@H](CCc1ccc(OC)c(OC)c1)c1cccc(OCCN2CCOCC2)c1)c1cc(OC)c(OC)c(OC)c1 [Shield-1],Binding to the F36V derivative compared to wild-type FKBP (tighter),[1],"about 1,000 fold"
same,Shield-1 concentration that can effectively turn on or off viral replication,[2],50 nM

# Reference: US20150307850A1, “CONDITIONAL REPLICATING VIRAL VECTORS” (priority 2012, published 2015)
